# Results: US8592435B2, “Nitrogen-containing six-membered aromatic ring derivatives and pharmaceutical products containing the same” (Daiichi Sankyo Company, Limited, priority 2007, dated 2013)
# What was measured:
# hippocampal neurons = experiment: Test Example 1: ability to promote axonal outgrowth; format: cell-based, Wistar rats; settings: Hippocampal neuron, 216 h; Compound Conc. = 3 μM; % of control; rat hippocampal neurons, day 9; read-out: Promotion of axonal outgrowth (%)
# Summary of the method: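 Embryonic day-18 Wistar rat hippocampal neurons were cultured at 37° C, treated with AraC from day 3, and given compound at 3 μM and 0.3 μM on days 3 and 7. On day 9, GAP-43-stained axons were quantified and expressed as % of control; bFGF-based threshold is 120.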
# spinal cord neurons = experiment: Test Example 3: ability to promote the neurite outgrowth of spinal cord neurons; format: cell-based, Wistar rats; settings: Compound Conc. = 0.1 μM; % of control, day 3
# Description: According to the method of Martin G. Hanson Jr. [J. Neurosci., 1998 Sep. 15; 18(18): 7361-71], the spinal cord region was isolated from 15-day embryos of female Wistar rats and the cells were dispersed using the papain dissociation system. Neurons were collected using 6.8% Metrizamide density gradient and were suspended in 2% FBS+Leibovitz's −15 medium so that the density of the cells will be 2×10^3 cells/well/200 μL. 200 μL of the cell suspension was inoculated on a poly-D-lysine/laminin-coated 96 well plate and the plate was incubated in an incubator at 37° C. Test compounds were added 1 hour after seeding of cells.
# On day 3 of the incubation period, neurons were stained with Calcein-AM and the lengths of neurites were determined using IN Cell Analyzer (GE Healthcare Bioscience).
# The ability (%) of each test compound to promote neurite outgrowth was calculated from the following equation: The ability to promote neurite outgrowth (%)=[(measurement with a compound of interest)/(measurement of control)]×100
# Example Compounds 65, 71, 74, 92, 130 and 135 were used as test compounds and were each added at a concentration of 0.1 μM.
# The results are shown in Table 27. bFGF gives a measurement of about 130 in this test.
# [1] = test system: microsphere (micro-embolism) model; experiment: Test Example 6: rat microsphere (micro-embolism) model; format: in vivo, Crl:CD(SD) rats; settings: rats, oral 1.0 mg/kg once daily for 10 days (Compound 65 also 0.1 mg/kg); 2 weeks after surgery
# From the text: According to the method of Ichiro Date et al. [Journal of Neuroscience Research 78; 442-453 (2004)], 8-week-old male Crl:CD(SD) rats were used. Animals were anesthetized with halothane and midline incision was made. Right carotid artery was separated and a thread was looped around the common carotid artery and external carotid artery. The pterygopalatine artery was temporarily clipped with an aneurysm clip. The blood flow through the common carotid artery and external carotid artery was temporarily interrupted and 0.1 mL of a microsphere suspension composed of microspheres dispersed in a 30% sucrose solution (1800 microspheres/0.1 mL) was injected into the common carotid artery. After injection of the suspension, the puncture of the injection needle was filled with instant glue while the blood flow was interrupted. The blood flow was then restored and the surgical wound was sutured. Neurological symptoms were observed the day following the surgery. The animals were assigned to each treated group at random with respect to the measurements of neurological symptoms, the decrease in body weight from the previous day, and the body weight on that day.
# The test compounds used were Example Compound 65, 108, 130, 135 and 137, each of which was administered at a dose of 1.0 mg/kg. Example Compound 65 was administered also at a dose of 0.1 mg/kg. Each compound was orally administered once daily for 10 days starting from the following day of the surgery. Coordinated motor functions were measured 5 times on an accelerated rota-rod (4 to 40 rpm/5 min) 2 weeks after the surgery.
# Specifically, FIGS. 11 to 15 show the effect of different compounds 2 weeks after the microsphere injection (rota-rod test standard parameter). The figures show the results of rota-rod tests 2 weeks after the ischemic event in which each compound was orally administered at 1.0 mg/kg once daily for 10 days (Example Compound 65 was administered at 0.1 mg/kg or 1.0 mg/kg). What is shown in the figures is the total time of the 5 measurements on rota-rod as a standard parameter.
# ***: p<0.0001, Dunnett's multiple range test vs. Vehicle.
# [2] = test system: mixture of human vascular endothelial cells and fibroblasts; experiment: Test Example 2: ability to promote angiogenesis (angiogenesis test kit KZ-1000); format: cell-based; settings: Homo sapiens, 216 h; Compound Conc. = 3 μM; lumen length, % of control, day 9; read-out: Promotion of angiogenesis (%)
# Summary of the method: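 Co-culture of human endothelial cells and fibroblasts; compound added on days 1, 4 and 7, CD31 immunostaining on day 9. Lumen length quantified from images and expressed as % of untreated control; 120 used as activity threshold.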
# [3] = test system: spinal cord injury (SCI) model; experiment: Test Example 7: spinal cord injury (SCI) model in rats; format: in vivo, Slc: SD rats; settings: 1 mg/kg through the tail vein once daily for 10 days, once a week until 5 weeks after surgery
# From the text: According to the method of Venkata Ramesh Dasari et al. [J Neurotrauma. 2007 February; 24(2):391-410], 9-week-old female Slc: SD rats were used. Animals were anesthetized with pentobarbital and incised along the dorsal midline. After the spinal column was exposed by dorsal midline incision, the 9th thoracic vertebral arch was removed with bone scissors, paying attention not to damage the dura mater. The upper and lower bones were held in place to position the exposed spinal site just under the impactor device (where impact is applied) and then a 200-kdyn force was applied to the site. Tonic extension of the lower limbs by the spinal cord injury was checked.
# The test compound used was Example Compound 65, which was administered at a dose of 1 mg/kg. Specifically, the compound was administered through the tail vein once daily for 10 days, starting from 90 min after the surgery. The motor function of lower limb was evaluated by BBB score (Basso D M, Beattie M S, Bresnahan J C: J Neurotrauma. 1995; 12:1-21) once a week until 5 weeks after surgery.
compound,measurement,setting,value
"Cc1nc(OCC(=O)N(C)C2CCN(Cc3ccccc3)CC2)nc(C)c1N [Compound 65, 2-(5-amino-4,6-dimethylpyrimidine-2-yloxy)-N-(1-benzylpiperidine-4-yl)-N-methylacetamide]",activity at 3 µM,hippocampal neurons,134%
same,Promotion of spinal cord neurite outgrowth (%),spinal cord neurons,135%
same,"coordinated motor functions, total time of 5 measurements on rota-rod",[1],highly effective in ameliorating ischemic cerebral infarction
same,activity at 3 µM,[2],170%
same,motor function of lower limb (BBB score),[3],highly effective in ameliorating spinal cord injury
